Results on 5 compounds are retold here after BindingDB's records for doi:10.1021/jm0492958 (Abbott Laboratories, 2005).

For orientation: EC50 means the midpoint of the concentration-response curve. Lower therefore signals greater potency.

For assay [1], the target named is Transient receptor potential cation channel subfamily V member 1 (Rattus norvegicus, UniProt O35433). Description: Ca2+ Influx Functional Assay for the Determination of in Vitro Activity. As to conditions: pH 7.4; 22 °C. As for the experimental part:
(§1) The functional antagonist activity of compounds at the TRPV1 receptor was determined with a Ca2+ influx assay by measuring the effect on capsaicin (0.05 uM) evoked increase in intracellular Ca2+ levels using cells stably expressing recombinant human TRPV1. All compounds were tested over an 11-point half-log concentration range. The fluorescent Ca2+ chelating dye fluo-4 was used as an indicator of the relative levels of Ca2+ in a 96-well format using a fluorescence imaging plate reader. Fluorescence readings were made at 1-5 s intervals over the 240 s course of the experimental run. The peak increase in relative fluorescence units was calculated and expressed as a percentage of the 0.05 uM capsaicin (control) response. Curve fits of the data were solved using a four-parameter logistic Hill equation in GraphPad Prism, and IC50 values were calculated.

The target in assay [2] is Transient receptor potential cation channel subfamily V member 1 (Homo sapiens, UniProt Q8NER1). The assay is described as above. As to conditions: pH 7.4; 22 °C. As for the experimental part:
as §1

Sequence of Transient receptor potential cation channel subfamily V member 1 (Homo sapiens, UniProt Q8NER1) (Q8NER1 whole entry): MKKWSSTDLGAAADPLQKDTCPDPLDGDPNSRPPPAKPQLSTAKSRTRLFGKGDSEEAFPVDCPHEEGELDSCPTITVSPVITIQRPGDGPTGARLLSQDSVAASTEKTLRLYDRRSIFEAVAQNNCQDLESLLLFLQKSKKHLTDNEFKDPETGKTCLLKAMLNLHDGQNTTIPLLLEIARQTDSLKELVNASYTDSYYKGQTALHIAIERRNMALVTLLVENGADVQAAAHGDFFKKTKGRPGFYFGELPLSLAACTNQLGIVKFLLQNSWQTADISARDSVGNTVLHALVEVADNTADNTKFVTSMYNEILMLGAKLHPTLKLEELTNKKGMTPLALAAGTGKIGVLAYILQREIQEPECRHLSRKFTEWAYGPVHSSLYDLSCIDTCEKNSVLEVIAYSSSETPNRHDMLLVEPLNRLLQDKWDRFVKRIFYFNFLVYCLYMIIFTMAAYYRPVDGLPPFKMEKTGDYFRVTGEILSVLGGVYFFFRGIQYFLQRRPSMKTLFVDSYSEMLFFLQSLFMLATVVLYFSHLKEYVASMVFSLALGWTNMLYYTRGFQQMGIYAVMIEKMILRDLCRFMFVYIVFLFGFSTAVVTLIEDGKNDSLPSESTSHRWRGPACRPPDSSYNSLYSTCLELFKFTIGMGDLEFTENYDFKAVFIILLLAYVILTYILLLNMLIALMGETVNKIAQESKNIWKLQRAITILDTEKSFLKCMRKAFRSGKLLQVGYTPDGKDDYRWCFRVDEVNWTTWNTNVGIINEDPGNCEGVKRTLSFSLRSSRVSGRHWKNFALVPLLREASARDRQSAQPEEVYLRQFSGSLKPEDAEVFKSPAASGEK
Sequence of Transient receptor potential cation channel subfamily V member 1 (Rattus norvegicus, UniProt O35433) (O35433 whole entry): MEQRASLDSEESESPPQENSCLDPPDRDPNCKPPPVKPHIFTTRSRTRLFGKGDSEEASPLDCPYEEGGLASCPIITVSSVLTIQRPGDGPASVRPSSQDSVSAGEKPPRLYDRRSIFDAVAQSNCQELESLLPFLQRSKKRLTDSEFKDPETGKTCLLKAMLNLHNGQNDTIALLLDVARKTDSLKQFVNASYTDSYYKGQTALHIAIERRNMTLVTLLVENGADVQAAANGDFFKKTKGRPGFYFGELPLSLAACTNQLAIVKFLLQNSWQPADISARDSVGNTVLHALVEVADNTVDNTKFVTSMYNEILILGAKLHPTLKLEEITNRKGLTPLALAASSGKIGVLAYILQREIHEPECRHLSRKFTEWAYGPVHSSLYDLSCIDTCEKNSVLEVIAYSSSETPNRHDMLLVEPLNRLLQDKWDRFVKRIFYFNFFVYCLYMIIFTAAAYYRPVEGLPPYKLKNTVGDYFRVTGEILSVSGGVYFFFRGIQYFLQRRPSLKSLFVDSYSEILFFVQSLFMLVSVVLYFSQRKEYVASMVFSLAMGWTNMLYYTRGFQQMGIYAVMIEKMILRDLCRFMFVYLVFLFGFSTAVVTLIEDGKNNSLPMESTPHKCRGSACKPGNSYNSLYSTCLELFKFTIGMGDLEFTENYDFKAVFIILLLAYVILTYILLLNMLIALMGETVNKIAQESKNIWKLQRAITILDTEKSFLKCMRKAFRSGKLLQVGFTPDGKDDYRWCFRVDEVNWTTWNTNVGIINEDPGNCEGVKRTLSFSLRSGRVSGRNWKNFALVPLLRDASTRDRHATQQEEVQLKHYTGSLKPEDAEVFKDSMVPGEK

As for `O=C(NCc1ccc(C(F)(F)F)cc1)Nc1cccc2cnccc12` [1-isoquinolin-5-yl-3-{[4-(trifluoromethyl)phenyl]methyl}urea], the concentration giving a half-maximal response (EC50) in assay [1] is 24 nM; in assay [2], 4 nM.

In assay [2], `CSc1cccc(NC(=O)Nc2cccc3ccc(O)cc23)c1` [3-(7-hydroxynaphthalen-1-yl)-1-[3-(methylsulfanyl)phenyl]urea] displayed an EC50 of 22 nM.

In turn, `O=C(NCCc1cccc(C(F)(F)F)c1)Nc1cccc2cnccc12` showed a concentration giving a half-maximal response (EC50) in assay [2] of 20 nM.

As for `O=C(NCc1cccc(C(F)(F)F)c1)Nc1cccc2cnccc12` [3-isoquinolin-5-yl-1-{[3-(trifluoromethyl)phenyl]methyl}urea], in assay [2], the response was half-maximal at 51 nM (EC50).

`O=C(NCCc1ccc(C(F)(F)F)cc1)Nc1cccc2cnccc12` yielded an EC50 in assay [2] of 19 nM.
